According to patent US20070129344A1, “Bicyclic 6-alkylidene-penem beta-lactamase inhibitors and beta-lactam antibiotic combination: a broad spectrum antibiotic” (priority 2005, published 2007):
Structures can show the parent of a compound that is named as a salt. Where two headings read alike, the source gives them in different places.

Columns and labels:
[1] = test system: K. pn GC 6655 (TEM-1 + ACT-1); test: MIC microbroth dilution; β-lactamase class A, C; assay type: cell-based, K. pneumoniae; details: Klebsiella pneumoniae
Experimental: (§1) The in vitro activities of the antibiotics were determined by the microbroth dilution method as recommended by the National Committee for Clinical Laboratory Standards (NCCLS). (NCCLS. 2000. Methods for Dilution Antimicrobial Susceptibility Tests for Bacteria That Grow Aerobically; Approved Standards: M7-A5, vol. 19. National Committee for Clinical Laboratory Standards, Villanova, Pa.). Mueller-Hinton II broth (MHBII)(BBL Cockeysville, Md.), was used for the testing procedure. […]. The plates were incubated for 18-22 hours at 35° C. in ambient air.

[2] = test system: K. pn GC 3104 (MIR-1 + TEM-1); test: MIC microbroth dilution; β-lactamase class A, C; assay type: cell-based, K. pneumoniae; details: Klebsiella pneumoniae
Experimental: as §1

[3] = test system: A. baumannii GC 6661 IMI-R; test: MIC microbroth dilution; class PBP (penicillin binding protein); assay type: cell-based
Experimental: as §1

[4] = test system: A. baumannii GC 6662 IMI-R; test: as above; assay type: cell-based
Experimental: as §1

[5] = test system: A. baumannii GC 6660 IMI-R; test: as above; assay type: cell-based
Experimental: as §1

[6] = test system: S. typhimurium GC 4197 CTX-M-5; test: MIC microbroth dilution; β-lactamase class A (ESBL); assay type: cell-based
Experimental: as §1

E. coli GC 1995 (TEM-10) = test: as above; assay type: cell-based; details: Escherichia coli
Experimental: as §1

E. coli GC 2400 (TEM-43) = test: as above; assay type: cell-based
Experimental: as §1

E. coli GC 1684 (TEM-10) = test: as above; assay type: cell-based
Experimental: as §1

[7] = test system: E. coli GC 2017 (TEM-10 + pl 6.3; 8.1); test: as above; assay type: cell-based
Experimental: as §1

E. coli GC 6368 (SHV-7) = test: as above; assay type: cell-based; details: Escherichia coli
Experimental: as §1

E. coli GC 2300 (TEM-28) = test: as above; assay type: cell-based
Experimental: as §1

K. pn GC 1832 (SHV-4) = test: as above; assay type: cell-based, K. pneumoniae
Experimental: as §1

K. pn GC 1830 (SHV-2) = test: as above; assay type: cell-based, K. pneumoniae; details: Klebsiella pneumoniae
Experimental: as §1

K. pn GC 1510 (TEM-10) = test: as above; assay type: cell-based, K. pneumoniae; details: Klebsiella pneumoniae
Experimental: as §1

K. pn GC 1516 (TEM-26) = test: as above; assay type: cell-based, K. pneumoniae
Experimental: as §1

K. pn GC 6639 (SHV-13) = test: as above; assay type: cell-based, K. pneumoniae
Experimental: as §1

[8] = test system: E. coli GC 2015 (TEM-10 + SHV-1); test: MIC microbroth dilution; β-lactamase class A, A (ESBL); assay type: cell-based
Experimental: as §1

[9] = test system: E. coli GC 5901 (TEM-1 and SHV-8); test: as above; assay type: cell-based
Experimental: as §1

[10] = test system: E. coli GC 1499 (TEM-4 + TEM-1); test: as above; assay type: cell-based
Experimental: as §1

[11] = test system: E. coli GC 6260 (TEM-1 + SHV-5); test: as above; assay type: cell-based
Experimental: as §1

[12] = test system: E. coli GC 1695 (TEM-1 + TEM-10); test: as above; assay type: cell-based
Experimental: as §1

[13] = test system: E. coli GC 2146 (TEM-1; SHV-7); test: as above; assay type: cell-based
Experimental: as §1

[14] = test system: A. baumannii PT 8321 PTZ-R; test: MIC microbroth dilution; β-lactamase class not determined; assay type: cell-based
Experimental: as §1

[15] = test system: A. baumannii PT 9158 PTZ-R; test: as above; assay type: cell-based
Experimental: as §1

[16] = test system: S. maltophilia GC 1712 (L1); test: MIC microbroth dilution; β-lactamase class B; assay type: cell-based
Experimental: as §1

[17] = test system: K. pneumoniae GC 7635 SHV-1, KPC2; test: MIC microbroth dilution; β-lactamase class A, A (Cb'ase); assay type: cell-based
Experimental: as §1

E. coli GC 2847 (TEM-1) = test: MIC microbroth dilution; β-lactamase class A; assay type: cell-based; details: Escherichia coli
Experimental: as §1

[18] = test system: P. aeruginosa PT 8503 PTZ-R; test: MIC microbroth dilution; assay type: cell-based
Experimental: as §1

[19] = test system: P. aeruginosa PT 9587 PTZ-R; test: MIC microbroth dilution; assay type: cell-based
Experimental: as §1

[20] = test system: P. aeruginosa PT 8411 PTZ-R; test: MIC microbroth dilution; assay type: cell-based
Experimental: as §1

[21] = test system: P. aeruginosa PT 9236 PTZ-R; test: MIC microbroth dilution; assay type: cell-based
Experimental: as §1

[22] = test system: E. coli GC 2149 (ACT-1; TEM-1 + pl 5.6); test: MIC microbroth dilution; β-lactamase class A, A (ESBL), C; assay type: cell-based; details: Escherichia coli
Experimental: as §1

[23] = test system: E. coli GC 6197 (TEM-1 + SHV-7 + CMY-2); test: as above; assay type: cell-based
Experimental: as §1

[24] = test system: K. pneumoniae GC 2825 Act 1 + 3 additional; test: as above; assay type: cell-based
Experimental: as §1

[25] = test system: K. pneumoniae GC 2826 Act 1 + 3 additional; test: as above; assay type: cell-based
Experimental: as §1

[26] = Cefepime alone, control of Compound 1 test, read-out: MIC
[27] = Cefepime alone, control of Compound 2 test, read-out: MIC
[28] = Cefepime alone, control of Compound 2 test
[29] = Escherichia coli, Cefepime alone, control of Compound 1 test, read-out: MIC
[30] = Klebsiella pneumoniae, Cefepime alone, control of Compound 1 test, read-out: MIC
[31] = Cefepime + 4 ug/ml Compound 2, read-out: MIC
[32] = Escherichia coli, Cefepime + 4 ug/ml Compound 2, read-out: MIC
[33] = Klebsiella pneumoniae, Cefepime + 4 ug/ml Compound 2, read-out: MIC

Measured: MIC

CO/N=C(\C(=O)N[C@@H]1C(=O)N2C(C(=O)[O-])=C(C[N+]3(C)CCCC3)CS[C@H]12)c1csc(N)n1 [Cefepime, reference compound]
1 µg/mL: [2]; [27] | E. coli GC 6368 (SHV-7); [26] | K. pn GC 1830 (SHV-2); [26]
0.5 µg/mL: [2]; [26] | K. pn GC 1830 (SHV-2); [27] | K. pn GC 1510 (TEM-10); [26]
0.12 µg/mL: E. coli GC 2847 (TEM-1); [26]
>16 µg/mL: [3]; [28] | [4]; [28] | [5]; [28] | [6]; [28] | E. coli GC 2400 (TEM-43); [28] | E. coli GC 1684 (TEM-10); [28] | [7]; [28] | K. pn GC 1516 (TEM-26); [28] | K. pn GC 6639 (SHV-13); [28] | [8]; [28] | [9]; [28] | [10]; [28] | [11]; [28] | [12]; [28] | [13]; [28] | [14]; [28] | [15]; [28] | [16]; [28] | [17]; [28] | [21]; [28] | [23]; [28]
2 µg/mL: [1]; [26] | E. coli GC 6368 (SHV-7); [27] | K. pn GC 1832 (SHV-4); [28] | K. pn GC 1832 (SHV-4); [30] | K. pn GC 1510 (TEM-10); [27] | [24]; [28] | [24]; [30]
16 µg/mL: E. coli GC 1995 (TEM-10); [27] | E. coli GC 2300 (TEM-28); [28] | E. coli GC 2300 (TEM-28); [29] | [20]; [28] | [20]; Pseudomonas aeruginosa, PT8411PTZR, Cefepime alone, control of Compound 1 test, read-out: MIC | [22]; [27]
8 µg/mL: E. coli GC 1995 (TEM-10); [26] | [18]; [28] | [18]; Pseudomonas aeruginosa, PT8503PTZR, Cefepime alone, control of Compound 1 test, read-out: MIC | [22]; [26] | [25]; [28] | [25]; [30]
4 µg/mL: [1]; [27] | [19]; [28] | [19]; Pseudomonas aeruginosa, PT9587PTZR, Cefepime alone, control of Compound 1 test, read-out: MIC
0.06 µg/mL: E. coli GC 2847 (TEM-1); [27]
> 16 µg/mL: [3]; Acinetobacter baumannii, GC6661IMIR, Cefepime alone, control of Compound 1 test, read-out: MIC | [4]; Acinetobacter baumannii, GC6662IMIR, Cefepime alone, control of Compound 1 test, read-out: MIC | [5]; Acinetobacter baumannii, GC6660IMIR, Cefepime alone, control of Compound 1 test, read-out: MIC | [6]; Salmonella enterica, Cefepime alone, control of Compound 1 test, read-out: MIC | E. coli GC 2400 (TEM-43); [29] | E. coli GC 1684 (TEM-10); [29] | [7]; [29] | K. pn GC 1516 (TEM-26); [30] | K. pn GC 6639 (SHV-13); [30] | [8]; [29] | [9]; [29] | [10]; [29] | [11]; [29] | [12]; [29] | [13]; [29] | [14]; Acinetobacter baumannii, PT8321PTZR, Cefepime alone, control of Compound 1 test, read-out: MIC | [15]; Acinetobacter baumannii, PT9158PTZR, Cefepime alone, control of Compound 1 test, read-out: MIC | [16]; Stenotrophomonas maltophilia, Cefepime alone, control of Compound 1 test, read-out: MIC | [17]; [30] | [21]; Pseudomonas aeruginosa, PT9236PTZR, Cefepime alone, control of Compound 1 test, read-out: MIC | [23]; [29]

O=C(O)C1=CS[C@@H]2/C(=C\c3cn4c(n3)COCC4)C(=O)N12 [Compound 2, (5R), (6Z)-6-(5,6-Dihydro-8H-imidazo[2.1-c][1,4]oxazin-2-ylmethylene)-7-oxo-4-thia-1-azabicyclo[3.2.0]hept-2-ene-2-carboxylic Acid, Sodium Salt]
2 µg/mL: [9]; [32] | [18]; Pseudomonas aeruginosa, PT8503PTZR, Cefepime + 4 ug/ml Compound 2, read-out: MIC | [19]; Pseudomonas aeruginosa, PT9587PTZR, Cefepime + 4 ug/ml Compound 2, read-out: MIC | [23]; [32]
0.06 µg/mL: E. coli GC 1684 (TEM-10); [32] | [7]; [32] | E. coli GC 6368 (SHV-7); [31] | K. pn GC 1832 (SHV-4); [33] | K. pn GC 1830 (SHV-2); [31] | E. coli GC 2847 (TEM-1); [31]
0.25 µg/mL: [6]; Salmonella enterica, Cefepime + 4 ug/ml Compound 2, read-out: MIC | E. coli GC 2300 (TEM-28); [32] | K. pn GC 1516 (TEM-26); [33]
0.03 µg/mL: E. coli GC 1995 (TEM-10); [31] | K. pn GC 1510 (TEM-10); [31] | [11]; [32] | [12]; [32]
4 µg/mL: [17]; [33] | [20]; Pseudomonas aeruginosa, PT8411PTZR, Cefepime + 4 ug/ml Compound 2, read-out: MIC
16 µg/mL: [3]; Acinetobacter baumannii, GC6661IMIR, Cefepime + 4 ug/ml Compound 2, read-out: MIC | [15]; Acinetobacter baumannii, PT9158PTZR, Cefepime + 4 ug/ml Compound 2, read-out: MIC | [16]; Stenotrophomonas maltophilia, Cefepime + 4 ug/ml Compound 2, read-out: MIC | [21]; Pseudomonas aeruginosa, PT9236PTZR, Cefepime + 4 ug/ml Compound 2, read-out: MIC
> 16 µg/mL: [4]; Acinetobacter baumannii, GC6662IMIR, Cefepime + 4 ug/ml Compound 2, read-out: MIC | [5]; Acinetobacter baumannii, GC6660IMIR, Cefepime + 4 ug/ml Compound 2, read-out: MIC | [14]; Acinetobacter baumannii, PT8321PTZR, Cefepime + 4 ug/ml Compound 2, read-out: MIC
1 µg/mL: [10]; [32] | [25]; [33]
0.12 µg/mL: [1]; [31] | K. pn GC 6639 (SHV-13); [33] | [8]; [32] | [13]; [32] | [24]; [33]
0.5 µg/mL: [2]; [31] | E. coli GC 2400 (TEM-43); [32] | [22]; [31]
